Measured values published in ChEMBL document CHEMBL1649074, “Aurora kinase inhibitors based on the imidazo[1,2-a]pyrazine core: fluorine and deuterium incorporation improve oral absorption and exposure” (J Med Chem, 2011).

What was measured:
[1] = biological target: Mitogen-activated protein kinase 1 (Homo sapiens, UniProt P28482); assay: Inhibition of ERK2
Aurora kinase B = Aurora kinase B (Homo sapiens, UniProt Q96GD4); assay: Inhibition of Aurora B in human HCT116 cells assessed as inhibition of histone H3 phosphorylation by immunofluorescence assay; format: cell-based, HCT-116
Aurora kinase B, sequence (Q96GD4 whole entry): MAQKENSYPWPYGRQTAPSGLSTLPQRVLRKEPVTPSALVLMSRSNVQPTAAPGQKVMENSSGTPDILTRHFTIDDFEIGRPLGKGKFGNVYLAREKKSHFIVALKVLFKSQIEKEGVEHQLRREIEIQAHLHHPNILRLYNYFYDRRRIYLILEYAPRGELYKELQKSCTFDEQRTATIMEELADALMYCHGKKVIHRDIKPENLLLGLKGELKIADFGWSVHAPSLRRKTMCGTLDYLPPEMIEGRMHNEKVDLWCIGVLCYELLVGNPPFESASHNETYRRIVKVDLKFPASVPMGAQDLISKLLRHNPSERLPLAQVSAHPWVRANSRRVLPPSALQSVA

[2] = biological target: Serine/threonine-protein kinase PLK3 (Homo sapiens, UniProt Q9H4B4); assay: Inhibition of PLK3
Serine/threonine-protein kinase PLK3, sequence (Q9H4B4 whole entry): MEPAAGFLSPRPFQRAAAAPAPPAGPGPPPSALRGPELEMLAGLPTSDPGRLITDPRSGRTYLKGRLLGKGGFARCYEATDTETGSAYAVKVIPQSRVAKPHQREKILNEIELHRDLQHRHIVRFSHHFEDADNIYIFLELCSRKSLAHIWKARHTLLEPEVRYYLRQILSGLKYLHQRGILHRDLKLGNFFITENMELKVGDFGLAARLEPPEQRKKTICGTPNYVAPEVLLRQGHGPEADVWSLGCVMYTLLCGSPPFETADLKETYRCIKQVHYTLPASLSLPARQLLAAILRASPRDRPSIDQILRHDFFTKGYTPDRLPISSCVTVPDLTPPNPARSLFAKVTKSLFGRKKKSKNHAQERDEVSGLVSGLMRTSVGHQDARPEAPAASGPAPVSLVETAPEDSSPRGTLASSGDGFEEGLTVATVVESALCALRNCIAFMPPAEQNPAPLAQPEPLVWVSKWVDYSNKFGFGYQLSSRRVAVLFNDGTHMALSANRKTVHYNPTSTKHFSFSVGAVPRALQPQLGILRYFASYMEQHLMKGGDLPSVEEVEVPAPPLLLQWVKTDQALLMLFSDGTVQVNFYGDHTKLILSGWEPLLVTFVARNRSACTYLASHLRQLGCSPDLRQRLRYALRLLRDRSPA

[3] = biological target: RAC-alpha serine/threonine-protein kinase (Homo sapiens, UniProt P31749); assay: Inhibition of AKT1
RAC-alpha serine/threonine-protein kinase, sequence (P31749 whole entry): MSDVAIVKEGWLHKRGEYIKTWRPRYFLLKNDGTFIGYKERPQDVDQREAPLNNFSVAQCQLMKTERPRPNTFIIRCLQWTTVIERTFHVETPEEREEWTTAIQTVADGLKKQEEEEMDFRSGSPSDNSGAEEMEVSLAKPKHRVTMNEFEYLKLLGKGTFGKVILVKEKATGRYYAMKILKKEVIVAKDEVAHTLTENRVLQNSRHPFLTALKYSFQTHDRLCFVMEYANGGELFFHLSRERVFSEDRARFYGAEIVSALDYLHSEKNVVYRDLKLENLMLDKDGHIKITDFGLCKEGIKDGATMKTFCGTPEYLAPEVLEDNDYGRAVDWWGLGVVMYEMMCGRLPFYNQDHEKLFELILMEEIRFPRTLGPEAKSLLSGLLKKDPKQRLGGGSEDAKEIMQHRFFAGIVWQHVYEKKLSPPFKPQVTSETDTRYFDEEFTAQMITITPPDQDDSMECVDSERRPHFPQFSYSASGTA

[4] = biological target: Protein kinase C alpha type (Homo sapiens, UniProt P17252); assay: Inhibition of PKCA
[5] = biological target: Hepatocyte growth factor receptor (Homo sapiens, UniProt P08581); assay: Inhibition of MET
Hepatocyte growth factor receptor, sequence (P08581 whole entry): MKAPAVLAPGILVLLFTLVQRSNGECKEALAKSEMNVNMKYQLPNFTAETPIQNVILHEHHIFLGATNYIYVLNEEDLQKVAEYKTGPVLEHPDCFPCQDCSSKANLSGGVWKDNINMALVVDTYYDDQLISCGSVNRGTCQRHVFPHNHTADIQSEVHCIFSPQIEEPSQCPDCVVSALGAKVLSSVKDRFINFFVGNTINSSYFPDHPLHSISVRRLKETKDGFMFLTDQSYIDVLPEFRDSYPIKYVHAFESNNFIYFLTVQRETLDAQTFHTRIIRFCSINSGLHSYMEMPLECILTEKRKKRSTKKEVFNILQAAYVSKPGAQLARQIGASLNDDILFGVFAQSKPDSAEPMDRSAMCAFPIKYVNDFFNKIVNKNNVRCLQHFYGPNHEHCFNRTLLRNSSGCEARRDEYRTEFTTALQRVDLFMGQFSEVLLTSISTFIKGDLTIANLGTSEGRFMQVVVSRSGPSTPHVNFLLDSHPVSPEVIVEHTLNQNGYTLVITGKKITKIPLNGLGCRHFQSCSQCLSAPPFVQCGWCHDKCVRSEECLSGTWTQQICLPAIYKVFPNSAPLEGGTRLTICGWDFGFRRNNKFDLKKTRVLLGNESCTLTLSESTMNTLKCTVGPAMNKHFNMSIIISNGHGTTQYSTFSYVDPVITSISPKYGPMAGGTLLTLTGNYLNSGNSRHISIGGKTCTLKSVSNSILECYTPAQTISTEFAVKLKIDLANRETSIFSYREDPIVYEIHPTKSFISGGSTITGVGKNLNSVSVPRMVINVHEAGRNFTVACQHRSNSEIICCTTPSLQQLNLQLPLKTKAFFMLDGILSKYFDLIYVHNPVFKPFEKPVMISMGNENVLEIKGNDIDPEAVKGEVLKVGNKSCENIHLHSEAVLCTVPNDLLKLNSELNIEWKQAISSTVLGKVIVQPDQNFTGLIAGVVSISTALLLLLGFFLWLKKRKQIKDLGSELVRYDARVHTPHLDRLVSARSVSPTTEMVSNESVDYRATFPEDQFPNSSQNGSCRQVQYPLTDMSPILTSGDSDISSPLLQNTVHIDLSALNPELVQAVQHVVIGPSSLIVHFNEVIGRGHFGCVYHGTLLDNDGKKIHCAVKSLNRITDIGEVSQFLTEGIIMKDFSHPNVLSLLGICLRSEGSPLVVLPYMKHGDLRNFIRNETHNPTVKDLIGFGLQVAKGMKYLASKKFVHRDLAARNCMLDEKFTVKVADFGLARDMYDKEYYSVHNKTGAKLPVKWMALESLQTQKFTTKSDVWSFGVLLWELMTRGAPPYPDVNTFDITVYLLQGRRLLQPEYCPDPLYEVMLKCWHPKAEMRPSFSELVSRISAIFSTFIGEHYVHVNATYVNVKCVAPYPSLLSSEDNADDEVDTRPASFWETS

Ephrin type-B receptor 4 = biological target: T1, Ephrin type-B receptor 4 (Homo sapiens, UniProt P54760); assay: Inhibition of EPHB4
T1 sequence (P54760 whole entry): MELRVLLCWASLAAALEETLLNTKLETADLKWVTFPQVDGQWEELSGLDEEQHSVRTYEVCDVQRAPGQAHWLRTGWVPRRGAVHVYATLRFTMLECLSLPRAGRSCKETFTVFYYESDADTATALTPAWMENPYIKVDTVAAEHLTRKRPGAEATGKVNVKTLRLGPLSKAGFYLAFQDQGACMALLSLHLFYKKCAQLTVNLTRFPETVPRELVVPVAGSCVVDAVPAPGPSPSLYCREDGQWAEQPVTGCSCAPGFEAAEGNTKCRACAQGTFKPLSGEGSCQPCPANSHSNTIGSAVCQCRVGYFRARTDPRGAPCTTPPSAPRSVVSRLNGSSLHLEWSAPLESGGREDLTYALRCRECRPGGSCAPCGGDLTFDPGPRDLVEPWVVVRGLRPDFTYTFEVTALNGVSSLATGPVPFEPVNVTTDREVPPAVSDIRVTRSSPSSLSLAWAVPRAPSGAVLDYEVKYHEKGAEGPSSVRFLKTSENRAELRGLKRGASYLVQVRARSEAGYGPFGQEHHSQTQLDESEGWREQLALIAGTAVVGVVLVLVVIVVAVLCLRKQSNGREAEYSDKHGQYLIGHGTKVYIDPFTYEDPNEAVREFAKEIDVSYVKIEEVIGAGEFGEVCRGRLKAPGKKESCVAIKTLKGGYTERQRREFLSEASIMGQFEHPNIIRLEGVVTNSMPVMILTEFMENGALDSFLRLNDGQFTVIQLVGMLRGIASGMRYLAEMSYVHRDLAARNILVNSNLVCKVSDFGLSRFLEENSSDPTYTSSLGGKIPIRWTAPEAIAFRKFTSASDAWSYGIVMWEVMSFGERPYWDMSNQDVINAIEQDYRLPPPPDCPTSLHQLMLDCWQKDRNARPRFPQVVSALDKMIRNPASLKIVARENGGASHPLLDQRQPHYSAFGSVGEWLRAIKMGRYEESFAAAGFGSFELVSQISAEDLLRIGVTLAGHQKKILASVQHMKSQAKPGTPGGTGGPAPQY

[6] = biological target: T2, Inhibitor of nuclear factor kappa-B kinase subunit beta (Homo sapiens, UniProt O14920); assay: Inhibition of IKK-beta
T2 sequence (O14920 whole entry): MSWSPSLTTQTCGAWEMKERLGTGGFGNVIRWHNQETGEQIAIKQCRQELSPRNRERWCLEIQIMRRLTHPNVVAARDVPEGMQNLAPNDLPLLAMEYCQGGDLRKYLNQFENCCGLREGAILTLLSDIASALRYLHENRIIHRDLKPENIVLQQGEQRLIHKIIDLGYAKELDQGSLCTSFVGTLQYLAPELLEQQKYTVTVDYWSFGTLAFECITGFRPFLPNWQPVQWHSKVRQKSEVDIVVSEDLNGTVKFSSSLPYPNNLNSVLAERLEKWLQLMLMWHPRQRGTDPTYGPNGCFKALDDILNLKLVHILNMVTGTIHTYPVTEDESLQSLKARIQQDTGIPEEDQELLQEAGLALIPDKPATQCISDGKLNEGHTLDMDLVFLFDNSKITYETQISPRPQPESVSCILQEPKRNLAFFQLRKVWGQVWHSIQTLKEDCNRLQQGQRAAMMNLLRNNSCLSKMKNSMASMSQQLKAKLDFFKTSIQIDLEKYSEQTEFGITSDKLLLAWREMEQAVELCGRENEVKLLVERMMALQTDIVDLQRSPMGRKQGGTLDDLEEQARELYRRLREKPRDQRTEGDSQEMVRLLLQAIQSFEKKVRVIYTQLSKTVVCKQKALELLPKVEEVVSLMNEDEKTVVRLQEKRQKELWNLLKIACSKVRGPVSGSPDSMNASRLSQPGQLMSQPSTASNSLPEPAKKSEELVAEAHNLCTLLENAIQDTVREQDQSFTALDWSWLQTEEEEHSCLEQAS

[7] = biological target: Vascular endothelial growth factor receptor 2 (Homo sapiens, UniProt P35968); assay: Inhibition of KDR
Vascular endothelial growth factor receptor 2, sequence (P35968 whole entry): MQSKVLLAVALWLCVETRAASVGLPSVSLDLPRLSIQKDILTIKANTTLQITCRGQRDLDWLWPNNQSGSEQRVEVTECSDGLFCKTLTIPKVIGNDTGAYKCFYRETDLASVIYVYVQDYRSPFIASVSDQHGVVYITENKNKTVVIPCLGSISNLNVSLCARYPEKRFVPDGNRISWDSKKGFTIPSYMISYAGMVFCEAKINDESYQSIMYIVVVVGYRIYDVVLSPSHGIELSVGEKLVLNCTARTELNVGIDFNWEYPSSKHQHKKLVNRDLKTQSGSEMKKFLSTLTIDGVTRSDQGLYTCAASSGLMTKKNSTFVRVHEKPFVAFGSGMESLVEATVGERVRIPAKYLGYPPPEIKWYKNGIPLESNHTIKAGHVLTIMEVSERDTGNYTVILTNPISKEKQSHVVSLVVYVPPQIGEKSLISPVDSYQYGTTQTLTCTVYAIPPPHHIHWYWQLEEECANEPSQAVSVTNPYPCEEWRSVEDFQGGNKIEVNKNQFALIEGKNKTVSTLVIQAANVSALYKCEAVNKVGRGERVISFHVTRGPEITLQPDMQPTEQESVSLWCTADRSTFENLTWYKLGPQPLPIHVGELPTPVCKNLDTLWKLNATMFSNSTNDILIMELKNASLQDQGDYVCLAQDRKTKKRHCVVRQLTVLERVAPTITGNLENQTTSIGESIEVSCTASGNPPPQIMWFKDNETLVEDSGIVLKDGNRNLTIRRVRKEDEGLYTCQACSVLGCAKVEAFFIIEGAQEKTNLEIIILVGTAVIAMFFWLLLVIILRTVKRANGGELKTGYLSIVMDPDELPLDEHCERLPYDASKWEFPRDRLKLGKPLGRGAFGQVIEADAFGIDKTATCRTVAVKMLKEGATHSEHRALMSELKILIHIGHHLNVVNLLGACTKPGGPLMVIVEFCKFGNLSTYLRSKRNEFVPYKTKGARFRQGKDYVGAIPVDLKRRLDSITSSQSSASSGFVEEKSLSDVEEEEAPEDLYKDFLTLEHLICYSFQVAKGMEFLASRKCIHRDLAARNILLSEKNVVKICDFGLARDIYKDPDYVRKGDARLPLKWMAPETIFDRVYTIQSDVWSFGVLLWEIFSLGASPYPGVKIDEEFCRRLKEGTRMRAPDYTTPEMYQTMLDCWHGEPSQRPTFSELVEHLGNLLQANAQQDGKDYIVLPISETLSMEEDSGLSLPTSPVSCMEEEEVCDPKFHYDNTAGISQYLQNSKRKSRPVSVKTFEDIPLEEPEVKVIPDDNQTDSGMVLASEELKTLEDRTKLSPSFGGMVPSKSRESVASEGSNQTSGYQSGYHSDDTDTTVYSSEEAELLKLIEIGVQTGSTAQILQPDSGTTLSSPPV

[8] = biological target: Cyclin-dependent kinase 2 (Homo sapiens, UniProt P24941); assay: Inhibition of CDK2
[9] = biological target: Casein kinase I isoform delta (Homo sapiens, UniProt P48730); assay: Inhibition of CSNK1D
Casein kinase I isoform delta, sequence (P48730 whole entry, canonical isoform): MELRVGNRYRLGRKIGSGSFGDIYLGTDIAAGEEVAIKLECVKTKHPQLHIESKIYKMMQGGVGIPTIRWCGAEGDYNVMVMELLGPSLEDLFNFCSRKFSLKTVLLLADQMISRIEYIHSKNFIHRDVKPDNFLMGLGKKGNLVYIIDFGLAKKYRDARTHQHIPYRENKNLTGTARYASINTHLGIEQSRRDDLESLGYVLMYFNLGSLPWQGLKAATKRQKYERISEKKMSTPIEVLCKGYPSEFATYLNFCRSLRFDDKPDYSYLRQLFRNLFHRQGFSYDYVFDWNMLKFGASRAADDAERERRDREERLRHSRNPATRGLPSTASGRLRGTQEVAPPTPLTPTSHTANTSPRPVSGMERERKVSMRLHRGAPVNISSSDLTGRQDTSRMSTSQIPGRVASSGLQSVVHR

Aurora kinase A = biological target: T3, Aurora kinase A (Homo sapiens, UniProt O14965); assay: Inhibition of Aurora A
T3 sequence (O14965 whole entry): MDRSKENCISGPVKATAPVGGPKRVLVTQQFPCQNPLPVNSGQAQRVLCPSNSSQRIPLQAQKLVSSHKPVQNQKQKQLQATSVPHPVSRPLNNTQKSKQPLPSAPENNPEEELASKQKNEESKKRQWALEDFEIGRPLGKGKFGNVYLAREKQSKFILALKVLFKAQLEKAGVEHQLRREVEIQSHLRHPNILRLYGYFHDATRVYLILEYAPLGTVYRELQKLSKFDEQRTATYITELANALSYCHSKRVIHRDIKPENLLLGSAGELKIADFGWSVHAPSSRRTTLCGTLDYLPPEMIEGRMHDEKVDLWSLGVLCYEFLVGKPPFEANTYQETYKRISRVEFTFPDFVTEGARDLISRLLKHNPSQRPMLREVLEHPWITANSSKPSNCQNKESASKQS

Mitogen-activated protein kinase 1, sequence (P28482 whole entry): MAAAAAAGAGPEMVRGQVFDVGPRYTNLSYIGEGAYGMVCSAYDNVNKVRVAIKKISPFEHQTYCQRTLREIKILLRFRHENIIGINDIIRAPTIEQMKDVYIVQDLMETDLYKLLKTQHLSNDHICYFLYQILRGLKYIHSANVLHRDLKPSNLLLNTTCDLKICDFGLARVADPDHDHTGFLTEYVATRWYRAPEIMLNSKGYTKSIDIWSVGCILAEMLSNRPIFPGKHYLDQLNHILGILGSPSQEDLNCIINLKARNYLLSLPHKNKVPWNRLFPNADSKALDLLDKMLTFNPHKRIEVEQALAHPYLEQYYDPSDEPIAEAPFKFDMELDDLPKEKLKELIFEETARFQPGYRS

SMILES | IC50 [1] | IC50 (Aurora kinase B) | IC50 [2] | IC50 [3] | IC50 [4] | IC50 [5] | IC50 (Ephrin type-B receptor 4) | IC50 [6] | IC50 [7] | IC50 [8] | IC50 [9] | IC50 (Aurora kinase A)
CCN(Cc1cc(Nc2nc(C)cn3c(-c4cn[nH]c4)cnc23)sn1)C(C)(C)CO | > 100 nM | 25 nM | > 100 nM | > 100 nM | > 100 nM | > 100 nM | 100 nM | > 100 nM | < 1 nM | > 100 nM | > 100 nM | ≤ 4 nM
Cc1cn2c(-c3cn[nH]c3)cnc2c(Nc2cc(CN3CCC(F)(F)C3)ns2)n1.Cl | > 100 nM | 91 nM | > 100 nM | > 100 nM | > 100 nM | > 100 nM | 770 nM | > 100 nM | 550 nM | > 100 nM | > 100 nM | ≤ 4 nM
Cl.[2H]C([2H])(c1cc(Nc2nc(C)cn3c(-c4cn[nH]c4)cnc23)sn1)N1CCC(F)(F)C1 | > 100 nM | 63 nM | > 100 nM | > 100 nM | > 100 nM | > 100 nM | 700 nM | > 100 nM | 340 nM | > 100 nM | > 100 nM | ≤ 4 nM
